Data set [1] has as its system 5-HTP-induced syndrome. The following applies: mice, orally administered, acute; cited from earlier work.
In data set [2] the test system is immobility in the tail suspension test. The following applies: mice, orally administered, acute; cited from earlier work.
Data set [3] in a line: Studies of stability under forced conditions. Type of data set: physicochemical. On the procedure: Additionally, the compound of formula I has shown excellent stability properties. The compound of formula I has remained stable for at least 6 months in studies of stability under forced conditions at 50 and 60° C., as well as at 40° C. and 75% humidity. This represents more than 2 years of stability under normal conditions.

Regarding `Fc1cccc(O[C@H](c2ccccc2)C2CCNCC2)c1` [(S)-4-[(3-fluorophenoxy)phenylmethyl]piperidine], the “minimal effective dose (MED), potentiation of the 5-HTP-induced syndrome” value in data set [1] is reported as 10 mg/kg. Besides, the “MED, reduction of the immobility in the tail suspension test” value in data set [2] was 10 mg/kg.
Regarding `CS(=O)(=O)O.Fc1cccc(OC(c2ccccc2)C2CCNCC2)c1` (stereo not drawn) [compound of formula I, 4-[(3-fluorophenoxy)phenylmethyl]piperidine methanesulfonic acid salt], the time remained stable entry in data set [3] (40° C. and 75% humidity) is listed as “at least 6 months”; in data set [3] (forced conditions at 50° C.), “at least 6 months”; in data set [3] (forced conditions at 60° C.), “at least 6 months”. Further, the “stability under normal conditions” value in data set [3] (represented by the forced-condition results) is recorded as “more than 2 years”.

Values taken from US20100004283A1, “4-[(3-FLUOROPHENOXY)PHENYLMETHYL]PIPERIDINE METHANESULFONATE: USES, PROCESS OF SYNTHESIS AND PHARMACEUTICAL COMPOSITIONS” (priority 2006, published 2010).
